In US10919852B2, “Immunomodulator compounds” (CHEMOCENTRYX, INC., priority 2017, dated 2021):

Target: human PD-L1 / Human PD-1 (Homo sapiens (Human), UniProt Q9NZQ7)
Assay: Enzyme-Linked Immunosorbent Assay (ELISA), PD-1/PD-L1 binding
Conditions: plate-coated human PD-L1, biotinylated human PD-1
In short: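 Compound dilutions (1:5 series) competed with 0.3 μg/mL biotin-labelled human PD-1 for PD-L1 immobilised at […], for 1 h at 37 °C. Read-out was A450 after streptavidin-HRP and a 20 min TMB reaction, stopped with 2 N H2SO4.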

Sequence of human PD-L1 / Human PD-1 (Q9NZQ7 19-239): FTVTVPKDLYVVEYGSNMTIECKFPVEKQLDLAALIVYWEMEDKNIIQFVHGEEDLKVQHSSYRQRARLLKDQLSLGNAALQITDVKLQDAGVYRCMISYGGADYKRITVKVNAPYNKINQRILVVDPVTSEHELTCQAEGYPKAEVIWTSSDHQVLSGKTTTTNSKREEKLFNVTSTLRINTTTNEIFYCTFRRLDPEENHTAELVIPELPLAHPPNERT

Compound | IC50
Cc1c(OCCCN2CCC(O)CC2)cccc1-c1cccc2c1CC[C@@H]2Oc1cc(OCc2cc(C#N)cc(C#N)c2)c(CN[C@@H](CO)C(=O)O)cc1Cl | < 5 nM
Cc1c(OCCCN2CCC(O)CC2)cccc1-c1cccc2c1CC[C@@H]2Oc1cc(OCc2cc(C#N)cc(C#N)c2)c(CN[C@H](C(=O)O)[C@@H](C)O)cc1Cl | < 5 nM
Cc1c(OCCCN2CCC(O)CC2)cccc1-c1cccc2c1CC[C@@H]2Oc1cc(OCc2cc(C#N)cc(C#N)c2)c(CN[C@@H]2CCCC[C@@H]2O)cc1Cl | < 5 nM
Cc1c(OCCCN2CCC[C@H]2CO)cccc1-c1cccc2c1CC[C@@H]2Oc1cc(OCc2cncc(C#N)c2)c(CN[C@H](C(=O)O)[C@@H](C)O)cc1Cl | < 5 nM
Cc1c(OCCCN2CCC(F)(C#N)CC2)cccc1-c1cccc2c1CC[C@@H]2Oc1cc(OCc2cc(C#N)cc(C#N)c2)c(CN[C@H]2CCC(=O)NC2)cc1Cl | 5 to 500 nM
Cc1c(OCCCN2CCC(F)CC2)cccc1-c1cccc2c1CC[C@@H]2Oc1cc(OCc2cc(C#N)cc(C#N)c2)c(CNC2CCNC(=O)C2)cc1Cl (stereo partly drawn) | < 5 nM
Cc1c(OCCCN2CCC[C@@H](F)C2)cccc1-c1cccc2c1CC[C@@H]2Oc1cc(OCc2cc(C#N)cc(C#N)c2)c(CN[C@H]2CCC(=O)NC2)cc1Cl | 5 to 500 nM
CCOc1cc(O[C@H]2CCc3c(-c4cccc(OCCCN5CCC(F)CC5)c4Cl)cccc32)c(Cl)cc1CN[C@H]1CCC(=O)NC1 | 5 to 500 nM
Cc1c(OCCCN2C(C)CC2C)cccc1-c1cccc2c1CC[C@@H]2Oc1cc(OCc2cc(C#N)cc(C#N)c2)c(CN[C@H]2CCC(=O)NC2)cc1Cl (stereo partly drawn) | < 5 nM
COc1cc(O[C@H]2CCc3c(-c4cccc(OCCCN5CCC(F)CC5)c4C)cccc32)c(Cl)cc1CN[C@H]1CCC(=O)NC1 | 5 to 500 nM
COc1cc(O[C@H]2CCc3c(-c4cccc(OCCCN5CCC(C)(F)CC5)c4C)cccc32)c(Cl)cc1CN[C@H]1CCC(=O)NC1 | 5 to 500 nM
Cc1c(OCCCN2CCCCC2(C)C)cccc1-c1cccc2c1CC[C@@H]2Oc1cc(OCc2cc(C#N)cc(C#N)c2)c(CN[C@H]2CCC(=O)NC2)cc1Cl | 5 to 500 nM
Cc1c(OCCCN2CCCC2C(C)(C)C)cccc1-c1cccc2c1CC[C@@H]2Oc1cc(OCc2cc(C#N)cc(C#N)c2)c(CN[C@H]2CCC(=O)NC2)cc1Cl (stereo partly drawn) | 5 to 500 nM
CN1CCC(COc2cccc(-c3cccc4c3CC[C@@H]4Oc3cc(OCc4cncc(C#N)c4)c(CN[C@H]4CCC(=O)NC4)cc3Cl)c2Cl)C1 (stereo partly drawn) | 5 to 500 nM
Cc1c(OCCCN2CC(C)(F)C2)cccc1-c1cccc2c1CC[C@@H]2Oc1cc(OCc2cc(C#N)cc(C#N)c2)c(CNC[C@H]2CCC(=O)N2)cc1Cl | 5 to 500 nM
N#Cc1cncc(COc2cc(O[C@H]3CCc4c(-c5cccc(OCCCN6CCC(F)CC6)c5Cl)cccc43)c(Cl)cc2CN2CC(C(=O)O)C2)c1 | < 5 nM
Cc1c(OCCCN2CC(C)(F)C2)cccc1-c1cccc2c1CC[C@@H]2Oc1cc(OCc2cc(C#N)cc(C#N)c2)c(CN[C@H]2CCC(=O)NC2)cc1Cl | 5 to 500 nM
Cc1c(OCCCN2CC(C)(C)C2)cccc1-c1cccc2c1CC[C@@H]2Oc1cc(OCc2cc(C#N)cc(C#N)c2)c(CN[C@H]2CCC(=O)NC2)cc1Cl | < 5 nM
CCOc1cc(O[C@@H]2c3cccc(-c4cccc(OCCCN5CCC(C)(F)CC5)c4C)c3C[C@@H]2F)c(Cl)cc1CN[C@H](C(=O)NS(C)(=O)=O)[C@@H](C)O | 5 to 500 nM
Cc1c(OCCCN2CCC(F)CC2)cccc1-c1cccc2c1CC[C@@H]2Oc1cc(OCc2cncc(C#N)c2)c(CNCC2CCC(=O)N2C)cc1Cl (stereo partly drawn) | 5 to 500 nM
CCOc1cc(O[C@H]2CCc3c(-c4cccc(OCCCNC(C)(C)C)c4C)cccc32)c(Cl)cc1CN1CC(C(=O)O)C1 | 5 to 500 nM

Compound | IC50
CCOc1cc(O[C@H]2CCc3c(-c4cccc(OCCCN5CCCC5(C)C)c4C)cccc32)c(Cl)cc1CN(C[C@@H]1CCC(=O)N1)C(C)C | 5 to 500 nM
CN1CC(COc2cccc(-c3cccc4c3CC[C@@H]4Oc3cc(OCc4cncc(C#N)c4)c(CN[C@H]4CCC(=O)NC4)cc3Cl)c2Cl)CC1=O (stereo partly drawn) | 5 to 500 nM
Cc1c(OCCCN2CCC(F)CC2)cccc1-c1cccc2c1CC[C@@H]2Oc1cc(OCc2cncc(C#N)c2)c(CN2CC(S(N)(=O)=O)C2)cc1Cl | 5 to 500 nM
CCOc1cc(O[C@H]2CCc3c(-c4cccc(OCCCN5CCC5(C)C)c4C)cccc32)c(Cl)cc1CN[C@H]1CCC(=O)NC1 | 5 to 500 nM
CCOc1cc(O[C@H]2CCc3c(-c4cccc(OCCCN5CCC5(C)C)c4C)cccc32)c(Cl)cc1CNC[C@@H]1CCC(=O)N1 | < 5 nM
CCOc1cc(O[C@H]2CCc3c(-c4cccc(OCCCN5CCC5(C)C)c4C)cccc32)c(Cl)cc1CN1CCC1(C)C | 5 to 500 nM
CCOc1cc(O[C@H]2CCc3c(-c4cccc(OCCCN5CCOCC5)c4C)cccc32)c(Cl)cc1CN1CC(C)(C(=O)O)C1 | 5 to 500 nM
CCOc1cc(O[C@H]2CCc3c(-c4cccc(OCCCN5CCC5(C)C)c4C)cccc32)c(Cl)cc1CN1CC(C(=O)O)C1 | 5 to 500 nM
CCOc1cc(O[C@H]2CCc3c(-c4cccc(OCCCN5CCC5(C)C)c4C)cccc32)c(Cl)cc1CN1CC(C)(C(=O)O)C1 | 5 to 500 nM
Cc1c(OCCCN2CC[C@@H](F)C[C@@H]2C)cccc1-c1cccc2c1CC[C@@H]2Oc1cc(OCc2cc(C#N)cc(C#N)c2)c(CN[C@H]2CCC(=O)NC2)cc1Cl | 5 to 500 nM
CCOc1cc(O[C@H]2CCc3c(-c4cccc(OCCCN5CCC5(C)C)c4C)cccc32)c(Cl)cc1CNC[C@H]1CCC(=O)N1 | 5 to 500 nM
CCOc1cc(O[C@H]2CCc3c(-c4cccc(OCCCN5CCC5(C)C)c4C)cccc32)c(Cl)cc1CN1CC(C)(C#N)C1 | 5 to 500 nM
CCOc1cc(O[C@H]2CCc3c(-c4cccc(OCCCN5CCC5(C)C)c4C)cccc32)c(Cl)cc1CN1CC(C#N)C1 | 5 to 500 nM
CCOc1cc(O[C@H]2CCc3c(-c4cccc(OCCCN5[C@H](C)CC[C@H]5C)c4C)cccc32)c(Cl)cc1CNC[C@@H]1CCC(=O)N1 | < 5 nM
CCOc1cc(O[C@H]2CCc3c(-c4cccc(OCCCN5CCC[C@H]5C(C)C)c4C)cccc32)c(Cl)cc1CNC[C@@H]1CCC(=O)N1 | 5 to 500 nM
CCOc1cc(O[C@H]2CCc3c(-c4cccc(OCCCN5CCC[C@@H]5C(C)C)c4C)cccc32)c(Cl)cc1CNC[C@@H]1CCC(=O)N1 | < 5 nM
CCOc1cc(O[C@H]2CCc3c(-c4cccc(OCCCN(C)C(C)(C)C)c4C)cccc32)c(Cl)cc1CNC[C@@H]1CCC(=O)N1 | < 5 nM
CCOc1cc(O[C@H]2CCc3c(-c4cccc(OCCCN5CCC5(C)C)c4C)cccc32)c(Cl)cc1CNCC1CCC(=O)N1C (stereo partly drawn) | 5 to 500 nM
CCOc1cc(O[C@H]2CCc3c(-c4cccc(OCCCN5CCC5(C)C)c4C)cccc32)c(Cl)cc1CN1CC(CC)(C(=O)O)C1 | 5 to 500 nM
CCOc1cc(O[C@H]2CCc3c(-c4cccc(OCCCN(C)C(C)C)c4C)cccc32)c(Cl)cc1CNC[C@@H]1CCC(=O)N1 | < 5 nM
CCOc1cc(O[C@H]2CCc3c(-c4cccc(OCCCN5CCCCC5(C)C)c4C)cccc32)c(Cl)cc1CNC[C@@H]1CCC(=O)N1 | 5 to 500 nM

Compound | IC50
CCOc1cc(O[C@H]2CCc3c(-c4cccc(OCCCN5C(C)CC5(C)C)c4C)cccc32)c(Cl)cc1CNC[C@@H]1CCC(=O)N1 (stereo partly drawn) | < 5 nM
CCOc1cc(O[C@H]2CCc3c(-c4cccc(OCCCN5CCC5C(C)(C)C)c4C)cccc32)c(Cl)cc1CNC[C@@H]1CCC(=O)N1 (stereo partly drawn) | 5 to 500 nM
CCOc1cc(O[C@H]2CCc3c(-c4cccc(OCCC(C)(C)N)c4C)cccc32)c(Cl)cc1CNC[C@@H]1CCC(=O)N1 | 5 to 500 nM
CCOc1cc(O[C@H]2CCc3c(-c4cccc(OCCC(C)(C)N)c4C)cccc32)c(Cl)cc1CN[C@H]1CCC(=O)NC1 | 5 to 500 nM
CCOc1cc(O[C@H]2CCc3c(-c4cccc(OCCCN5CCC5(C)C)c4C)cccc32)c(Cl)cc1CNCCO | < 5 nM
CCOc1cc(O[C@H]2CCc3c(-c4cccc(OCCCN5CCC5(C)C)c4C)cccc32)c(Cl)cc1CNCC(C)(C)CO | 5 to 500 nM
CCOc1cc(O[C@H]2CCc3c(-c4cccc(OCCCN5C(C)CC5C)c4C)cccc32)c(Cl)cc1CNC[C@@H]1CCC(=O)N1 (stereo partly drawn) | < 5 nM
CN1CCC(COc2cccc(-c3cccc4c3CC[C@@H]4Oc3cc(OCc4cncc(C#N)c4)c(CN[C@H]4CCC(=O)NC4)cc3Cl)c2Cl)C1=O (stereo partly drawn) | 5 to 500 nM
CCOc1cc(O[C@H]2CCc3c(-c4cccc(OCCCN5CC(C)(C)C5)c4C)cccc32)c(Cl)cc1CNC[C@@H]1CCC(=O)N1 | 5 to 500 nM
CCOc1cc(O[C@@H]2c3cccc(-c4cccc(OCCCN5CCC(C)(F)CC5)c4C)c3C[C@@H]2F)c(Cl)cc1CNC[C@@H]1CCC(=O)N1 | 5 to 500 nM
CCOc1cc(O[C@H]2CCc3c(-c4cccc(OCCCN5CCC5(C)C)c4C)cccc32)c(Cl)cc1CN1CCNC(=O)CC1 | 5 to 500 nM
CCOc1cc(O[C@H]2CCc3c(-c4cccc(OCCCN5[C@H](C)CC[C@H]5C)c4C)cccc32)c(Cl)cc1CN1CCC(O)CC1 | 5 to 500 nM
CCOc1cc(O[C@H]2CCc3c(-c4cccc(OCCCN5[C@H](C)CC[C@H]5C)c4C)cccc32)c(Cl)cc1CN1CCC(C(=O)O)CC1 | 5 to 500 nM
CCOc1cc(O[C@H]2CCc3c(-c4cccc(OCCCN5[C@H](C)CC[C@H]5C)c4C)cccc32)c(Cl)cc1CN1CCC(C(=O)OC)CC1 | 5 to 500 nM
CCOc1cc(O[C@H]2CCc3c(-c4cccc(OCCCN5[C@H](C)CC[C@H]5C)c4C)cccc32)c(Cl)cc1CN1CCCC[C@@H]1C(=O)O | 5 to 500 nM
CCOc1cc(O[C@H]2CCc3c(-c4cccc(OCCCN5[C@H](C)CC[C@H]5C)c4C)cccc32)c(Cl)cc1CN1CCC[C@H](C(=O)O)C1 | 5 to 500 nM
CCOc1cc(O[C@H]2CCc3c(-c4cccc(OCCCN5[C@H](C)CC[C@H]5C)c4C)cccc32)c(Cl)cc1CN1CCC[C@@H](C(=O)O)C1 | 5 to 500 nM
CCOc1cc(O[C@H]2CCc3c(-c4cccc(OCCCN5CCC5(C)C)c4C)cccc32)c(Cl)cc1CN(C)CCC(=O)O | 5 to 500 nM
Cc1c(OCCCN2CCC(O)CC2)cccc1-c1cccc2c1CC[C@@H]2Oc1cc(OCc2cncc(C#N)c2)c(CN(C)[C@H](C(=O)O)[C@@H](C)O)cc1Cl | < 5 nM
CN(Cc1cc(Cl)c(O[C@H]2CCc3c(-c4cccc(OCCCN5CC(O)C5)c4Cl)cccc32)cc1OCc1cncc(C#N)c1)[C@@](C)(CO)C(=O)O | < 5 nM
CCOc1cc(O[C@H]2CCc3c(-c4cccc(OCCCN5CCC5(C)C)c4C)cccc32)c(Cl)cc1CN(C)CCC(=O)OC | 5 to 500 nM
